This series can be described thus: in vivo. Details: species or system Sprague-Dawley rats. The settings on record: rat, iv, 0.033 mg/kg. The gist of the method: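 Peptide plasma levels measured by UPLC-MS/MS (C18, product-ion monitoring) after protein precipitation or WCX SPE, calibrated in K2EDTA/protease-inhibitor rat plasma. Dosing in non-fasted male Sprague-Dawley rats (n=3): 0.033 mg/kg over 1 h by IV or SC infusion, or 0.3 mg/kg SC bolus; sampling up to 48 h.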

Starred links: 1 amine or outer side, 2 acyl side, 3 side chain; linkers in the order of their positions; H or OH if unused. Positions of bridges follow the written chain, without caps; N, C: chain ends. Non-standard residues stand in square brackets, D forms with d. Residues, ends and D or L forms follow the SMILES beside them. Groups on a side chain read outwards from the residue. *: point of attachment. C20 diacid = O=C(O)CCCCCCCCCCCCCCCCCCC(=O)*; C16 diacid = O=C(O)CCCCCCCCCCCCCCC(=O)*; γGlu = O=C(O)[C@H](CCC(=O)[*:2])N[*:1]; C12 diacid = O=C(O)CCCCCCCCCCC(=O)*; Palmitoyl = CCCCCCCCCCCCCCCC(=O)*

Turning to `CCCCCCCCCCCCCCCC(=O)N[C@@H](CCC(=O)N[C@@H](CCC(=O)NCCCC[C@@H](NC(=O)[C@H](Cc1ccccc1)NC(=O)[C@H](CC(N)=O)NC(=O)[C@H](C)NC(=O)[C@H](CC(C)C)NC(=O)[C@H](CCCNC(=N)N)NC(=O)[C@H](CCC(N)=O)NC(=O)[C@@H](NC(=O)[C@H](C)NC(=O)[C@@H]1CSSC[C@H](NC(=O)[C@@H](N)CO)C(=O)N[C@@H](CC(N)=O)C(=O)N[C@@H]([C@@H](C)O)C(=O)N[C@@H](CO)C(=O)N[C@@H]([C@@H](C)O)C(=O)N1)[C@@H](C)O)C(=O)N[C@@H](Cc1c[nH]cn1)C(=O)N[C@@H](CCCCN)C(=O)N[C@@H](CO)C(=O)N[C@@H](CO)C(=O)N[C@@H](CC(N)=O)C(=O)N[C@@H](CC(N)=O)C(=O)N[C@@H](Cc1ccccc1)C(=O)NCC(=O)N1CCC[C@H]1C(=O)N[C@H](C(=O)N[C@@H](CC(C)C)C(=O)N1CCC[C@H]1C(=O)N1CCC[C@H]1C(=O)N[C@H](C(=O)N[C@@H](CCCCN)C(=O)N[C@H](C(=O)NCC(=O)N[C@@H](CO)C(=O)N[C@@H](CCC(=O)O)C(=O)N[C@H](C(=O)N[C@@H](Cc1ccc(O)cc1)C(N)=O)[C@@H](C)O)C(C)C)[C@@H](C)O)[C@@H](C)CC)C(=O)O)C(=O)O` [Compound A70] (H-SCNTSTCATQRLANF[dK]([γGlu-γGlu-Palmitoyl])HKSSNNFGPILPPTKVGSETY-NH2; disulfide 2-7), the distribution volume (Vd) (as a rule, the apparent volume that relates the amount in the body to the concentration in plasma or blood) was 0.187 L/kg; the clearance (as a rule, a measure of how efficiently the substance is removed, as volume per time) was 3.08 mL/min/kg; the half-life (as a rule, the time needed for the level to fall by half in the phase considered) is 0.752 h.

The molecule `CC[C@H](C)[C@H](NC(=O)[C@@H]1CCCN1C(=O)CNC(=O)[C@H](Cc1ccccc1)NC(=O)[C@H](CC(N)=O)NC(=O)[C@H](CC(N)=O)NC(=O)[C@H](CO)NC(=O)[C@H](CO)NC(=O)[C@H](CCCCN)NC(=O)[C@H](Cc1c[nH]cn1)NC(=O)[C@H](CC(C)C)NC(=O)[C@H](CCCCNC(=O)CCCCCCCCCCCCCCC(=O)O)NC(=O)[C@H](CC(N)=O)NC(=O)[C@H](C)NC(=O)[C@H](CC(C)C)NC(=O)[C@H](CCCNC(=N)N)NC(=O)[C@H](CCC(N)=O)NC(=O)[C@@H](NC(=O)[C@H](C)NC(=O)[C@@H]1CSSC[C@H](NC(=O)[C@@H](N)CO)C(=O)N[C@@H](CC(N)=O)C(=O)N[C@@H]([C@@H](C)O)C(=O)N[C@@H](CO)C(=O)N[C@@H]([C@@H](C)O)C(=O)N1)[C@@H](C)O)C(=O)N[C@@H](CC(C)C)C(=O)N1CCC[C@H]1C(=O)N1CCC[C@H]1C(=O)N[C@H](C(=O)N[C@@H](CCCCN)C(=O)N[C@H](C(=O)NCC(=O)N[C@@H](CO)C(=O)N[C@@H](CCC(=O)O)C(=O)N[C@H](C(=O)N[C@@H](Cc1ccc(O)cc1)C(N)=O)[C@@H](C)O)C(C)C)[C@@H](C)O` [Compound A72] (H-SCNTSTCATQRLANK(C16 diacid)LHKSSNNFGPILPPTKVGSETY-NH2; disulfide 2-7) gave a Vd of 0.172 L/kg, a clearance of 1.54 mL/min/kg and a half-life of 3.44 h.

For the setting “male, Sprague-Dawley”, `CC[C@H](C)[C@H](NC(=O)[C@@H]1CCCN1C(=O)CNC(=O)[C@H](Cc1ccccc1)NC(=O)[C@H](CC(N)=O)NC(=O)[C@H](CC(N)=O)NC(=O)[C@H](CO)NC(=O)[C@H](CO)NC(=O)[C@H](CCCCN)NC(=O)[C@H](Cc1c[nH]cn1)NC(=O)[C@H](CCCCNC(=O)CC[C@H](NC(=O)CCCCCCCCCCCCCCCCCCC(=O)O)C(=O)O)NC(=O)[C@H](CCC(=O)O)NC(=O)[C@H](CC(N)=O)NC(=O)[C@H](C)NC(=O)[C@H](CC(C)C)NC(=O)[C@H](CCCNC(=N)N)NC(=O)[C@H](CCC(N)=O)NC(=O)[C@@H](NC(=O)[C@H](C)NC(=O)[C@@H]1CSSC[C@H](NC(=O)[C@@H](N)CO)C(=O)N[C@@H](CC(N)=O)C(=O)N[C@@H]([C@@H](C)O)C(=O)N[C@@H](CO)C(=O)N[C@@H]([C@@H](C)O)C(=O)N1)[C@@H](C)O)C(=O)N[C@@H](CC(C)C)C(=O)N1CCC[C@H]1C(=O)N1CCC[C@H]1C(=O)N[C@H](C(=O)N[C@@H](CCCCN)C(=O)N[C@H](C(=O)NCC(=O)N[C@@H](CO)C(=O)N[C@@H](CCC(=O)O)C(=O)N[C@H](C(=O)N[C@@H](Cc1ccc(O)cc1)C(N)=O)[C@@H](C)O)C(C)C)[C@@H](C)O` [Compound A73] (H-SCNTSTCATQRLANEK([γGlu-C20 diacid])HKSSNNFGPILPPTKVGSETY-NH2; disulfide 2-7; N-terminus assumed) gave a volume of distribution (Vd) of 0.0924 L/kg, a clearance of 0.0449 mL/min/kg and a half-life of 26.6 h.

In the case of `CC[C@H](C)[C@H](NC(=O)[C@@H]1CCCN1C(=O)CNC(=O)[C@H](Cc1ccccc1)NC(=O)[C@H](CC(N)=O)NC(=O)[C@H](CC(N)=O)NC(=O)[C@H](CO)NC(=O)[C@H](CO)NC(=O)[C@H](CCCCN)NC(=O)[C@H](Cc1c[nH]cn1)NC(=O)[C@H](CCCCNC(=O)CCCCCCCCCCC(=O)O)NC(=O)[C@H](CCC(=O)O)NC(=O)[C@H](CC(N)=O)NC(=O)[C@H](C)NC(=O)[C@H](CC(C)C)NC(=O)[C@H](CCCNC(=N)N)NC(=O)[C@H](CCC(N)=O)NC(=O)[C@@H](NC(=O)[C@H](C)NC(=O)[C@@H]1CSSC[C@H](NC(=O)[C@@H](N)CO)C(=O)N[C@@H](CC(N)=O)C(=O)N[C@@H]([C@@H](C)O)C(=O)N[C@@H](CO)C(=O)N[C@@H]([C@@H](C)O)C(=O)N1)[C@@H](C)O)C(=O)N[C@@H](CC(C)C)C(=O)N1CCC[C@H]1C(=O)N1CCC[C@H]1C(=O)N[C@H](C(=O)N[C@@H](CCCCN)C(=O)N[C@H](C(=O)NCC(=O)N[C@@H](CO)C(=O)N[C@@H](CCC(=O)O)C(=O)N[C@H](C(=O)N[C@@H](Cc1ccc(O)cc1)C(N)=O)[C@@H](C)O)C(C)C)[C@@H](C)O` [Compound A74] (H-SCNTSTCATQRLANEK(C12 diacid)HKSSNNFGPILPPTKVGSETY-NH2; disulfide 2-7), the distribution volume (Vd) stood at 0.331 L/kg, the clearance is 12.2 mL/min/kg and the half-life is 0.331 h.

Where the note is “male, Sprague-Dawley”, `CC[C@H](C)[C@H](NC(=O)[C@@H]1CCCN1C(=O)CNC(=O)[C@H](Cc1ccccc1)NC(=O)[C@H](CC(N)=O)NC(=O)[C@H](CC(N)=O)NC(=O)[C@H](CO)NC(=O)[C@H](CO)NC(=O)[C@H](CCCCN)NC(=O)[C@H](Cc1c[nH]cn1)NC(=O)[C@H](CCCCNC(=O)CCCCCCCCCCCCCCCCCCC(=O)O)NC(=O)[C@H](CCC(=O)O)NC(=O)[C@H](CC(N)=O)NC(=O)[C@H](C)NC(=O)[C@H](CC(C)C)NC(=O)[C@H](CCCNC(=N)N)NC(=O)[C@H](CCC(N)=O)NC(=O)[C@@H](NC(=O)[C@H](C)NC(=O)[C@@H]1CSSC[C@H](NC(=O)[C@@H](N)CO)C(=O)N[C@@H](CC(N)=O)C(=O)N[C@@H]([C@@H](C)O)C(=O)N[C@@H](CO)C(=O)N[C@@H]([C@@H](C)O)C(=O)N1)[C@@H](C)O)C(=O)N[C@@H](CC(C)C)C(=O)N1CCC[C@H]1C(=O)N1CCC[C@H]1C(=O)N[C@H](C(=O)N[C@@H](CCCCN)C(=O)N[C@H](C(=O)NCC(=O)N[C@@H](CO)C(=O)N[C@@H](CCC(=O)O)C(=O)N[C@H](C(=O)N[C@@H](Cc1ccc(O)cc1)C(N)=O)[C@@H](C)O)C(C)C)[C@@H](C)O` [Compound A75] (H-SCNTSTCATQRLANEK(C20 diacid)HKSSNNFGPILPPTKVGSETY-NH2; disulfide 2-7; N-terminus assumed) gave a Vd of 0.121 L/kg, a clearance of 0.0781 mL/min/kg and a half-life of 24.1 h.

The values are drawn from patent US12018059B2, “Human amylin analog polypeptides and methods of use” (Intarcia Therapeutics, Inc., priority 2018, dated 2024).
